PubChem BioAssay (NCI)
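Cultured in 96-well plates, cells were exposed to test compound for 48 hours across five concentrations. GI50 marks 50% less growth. TGI is the concentration that stops growth completely.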

What was measured:
Experiment in all cases: growth of human tumour cells (NCI), 48 h
[1] = tested on: A549 NSCLC
[2] = tested on: UACC-257 melanoma
[3] = tested on: SN12C renal
[4] = tested on: TK-10 renal
[5] = tested on: MOLT-4 leukemia
[6] = tested on: PC-3 prostate
[7] = tested on: EKVX NSCLC
[8] = tested on: CAKI-1 renal
[9] = tested on: ACHN renal
[10] = tested on: SF-268 CNS
[11] = tested on: MDA-MB-231 breast
[12] = tested on: HCC-2998 colon
[13] = tested on: MDA-MB-435
[14] = tested on: HL-60(TB) leukemia
[15] = tested on: SK-MEL-2 melanoma
[16] = tested on: OVCAR-8 ovarian
[17] = tested on: HOP-92 NSCLC
[18] = tested on: HT29 colon
[19] = tested on: NCI/ADR-RES ovarian
[20] = tested on: U251 CNS
[21] = tested on: K-562 leukemia
[22] = tested on: SNB-19 CNS
[23] = tested on: SR leukemia
[24] = tested on: HS 578T breast
[25] = tested on: M14 melanoma
[26] = tested on: SF-295 CNS
[27] = tested on: SW-620 colon
[28] = tested on: SK-MEL-5 melanoma
[29] = tested on: OVCAR-5 ovarian
[30] = tested on: SK-MEL-28 melanoma
[31] = tested on: 786-0 renal
[32] = tested on: MCF7 breast
[33] = tested on: OVCAR-3 ovarian
[34] = tested on: HCT-15 colon
[35] = tested on: BT-549 breast
[36] = tested on: NCI-H522 lung
[37] = tested on: CCRF-CEM leukemia
[38] = tested on: OVCAR-4 ovarian
[39] = tested on: LOX IMVI melanoma
[40] = tested on: SNB-75 CNS
[41] = tested on: A498 renal
[42] = tested on: NCI-H460 lung
[43] = tested on: RPMI-8226 leukemia
[44] = tested on: MALME-3M melanoma
[45] = tested on: KM12 colon
[46] = tested on: UACC-62 melanoma
[47] = tested on: SK-OV-3 ovarian
[48] = tested on: HCT-116 colon
[49] = tested on: COLO 205 colon
[50] = tested on: UO-31 renal
[51] = tested on: NCI-H23 lung
[52] = tested on: T-47D breast
[53] = tested on: HOP-62 NSCLC
[54] = tested on: DU-145 prostate
[55] = tested on: IGROV1 ovarian
[56] = tested on: NCI-H226 lung
[57] = tested on: SF-539 CNS
[58] = tested on: RXF 393 renal

Work on `O=C1c2ccc3c4c(ccc(c24)C(=O)N1CCCNCc1ccccc1)C(=O)N(CCCNCc1ccccc1)C3=O` yielded a GI50 [1] of 131 nM, a TGI [1] of 365 nM and a GI50 [2] of 199 nM. The TGI [2] was 386 nM, the GI50 [3] was 145 nM and the TGI [3] was 308 nM. For the same compound, the GI50 [4] was 119 nM, the TGI [4] was 413 nM and the GI50 [5] was 85.8 nM. For the same compound, the TGI [5] was 437 nM, the GI50 [6] was 203 nM and the TGI [6] was 622 nM. The GI50 [7] was 165 nM, the TGI [7] was 323 nM and the GI50 [8] was 210 nM. For the same compound, the TGI [8] was 588 nM, the GI50 [9] was 135 nM and the TGI [9] was 722 nM. The GI50 [10] was 173 nM, the TGI [10] was 531 nM and the GI50 [11] was 238 nM. For the same compound, the TGI [11] was 917 nM, the GI50 [12] was 154 nM and the TGI [12] was 303 nM. The GI50 [13] was 180 nM, the TGI [13] was 356 nM and the GI50 [14] was 163 nM. It also gave a TGI [14] of 412 nM, a GI50 [15] of 178 nM and a TGI [15] of 363 nM. The GI50 [16] was 99.3 nM, the TGI [16] was 407 nM and the GI50 [17] was 199 nM. It also gave a TGI [17] of 585 nM, a GI50 [18] of 42.1 nM and a TGI [18] of 231 nM. The GI50 [19] was 236 nM, the TGI [19] was 779 nM and the GI50 [20] was 112 nM. It also gave a TGI [20] of 301 nM, a GI50 [21] of 136 nM and a TGI [21] of 778 nM. For the same compound, the GI50 [22] was 130 nM, the TGI [22] was 314 nM and the GI50 [23] was 75.6 nM. It also gave a TGI [23] of 505 nM, a GI50 [24] of 531 nM and a TGI [24] of 3240 nM. The GI50 [25] was 161 nM, the TGI [25] was 307 nM and the GI50 [26] was 173 nM. For the same compound, the TGI [26] was 432 nM, the GI50 [27] was 75.8 nM and the TGI [27] was 326 nM. For the same compound, the GI50 [28] was 165 nM, the TGI [28] was 302 nM and the GI50 [29] was 233 nM. It also gave a TGI [29] of 648 nM, a GI50 [30] of 247 nM and a TGI [30] of 636 nM. For the same compound, the GI50 [31] was 251 nM, the TGI [31] was 837 nM and the GI50 [32] was 80.8 nM. For the same compound, the TGI [32] was 330 nM, the GI50 [33] was 130 nM and the TGI [33] was 476 nM. The GI50 [34] was 116 nM, the TGI [34] was 316 nM and the GI50 [35] was 451 nM. The TGI [35] was 889 nM, the GI50 [36] was 142 nM and the TGI [36] was 303 nM. It also gave a GI50 [37] of 170 nM, a TGI [37] of 4730 nM and a GI50 [38] of 119 nM. For the same compound, the TGI [38] was 248 nM, the GI50 [39] was 135 nM and the TGI [39] was 363 nM. The GI50 [40] was 147 nM, the TGI [40] was 291 nM and the GI50 [41] was 951 nM. For the same compound, the TGI [41] was 2180 nM, the GI50 [42] was 146 nM and the TGI [42] was 579 nM. The GI50 [43] was 265 nM, the TGI [43] was 939 nM and the GI50 [44] was 152 nM. For the same compound, the TGI [44] was 298 nM, the GI50 [45] was 108 nM and the TGI [45] was 288 nM. It also gave a GI50 [46] of 180 nM, a TGI [46] of 333 nM and a GI50 [47] of 285 nM. For the same compound, the TGI [47] was 820 nM, the GI50 [48] was 80.1 nM and the TGI [48] was 390 nM. For the same compound, the GI50 [49] was 113 nM, the TGI [49] was 240 nM and the GI50 [50] was 148 nM. It also gave a TGI [50] of 364 nM, a GI50 [51] of 180 nM and a TGI [51] of 420 nM. For the same compound, the GI50 [52] was 192 nM, the TGI [52] was 429 nM and the GI50 [53] was 232 nM. The TGI [53] was 772 nM, the GI50 [54] was 156 nM and the TGI [54] was 297 nM. For the same compound, the GI50 [55] was 110 nM, the TGI [55] was 405 nM and the GI50 [56] was 694 nM. It also gave a TGI [56] of 2250 nM, a GI50 [57] of 194 nM and a TGI [57] of 450 nM. It also gave a GI50 [58] of 135 nM and a TGI [58] of 270 nM.
